# Paper PMC7287874 (2020)
# Legend:
# [1] = tested on: GR wild type (xpt-pbuX guanine riboswitch aptamer) (RNA, riboswitch) GGACAUAUAAUCGCGUGGAUAUGGCACGCAAGUUUCUACCGGGCACCGUAAAUGUCCGACUAUGUCCA; test: ITC; conditions: 100 mM KCl, 20 mM MgCl2, 50 mM K-HEPES, pH 7.5, 25 °C; for KD: single-site fit; for binding: no binding, highest concentration for this compound not stated
# [2] = tested on: GR RNA, crystallized (RNA, riboswitch) GGACAUAUAAUCGCGUGGAUAUGGCACGCAAGUUUCUACCGGGCACCGUAAAUGUCCGACUAUGUCC; test: X-ray crystallography; conditions: cobalt hexammine 30–50 mM, ammonium acetate 600–650 mM, 10 mM K-HEPES pH 7.5, PEG 3000, 24 °C
# [3] = tested on: GR(A19C-U77G) (RNA, riboswitch) GGACCUAUAAUCGCGUGGAUAUGGCACGCAAGUUUCUACCGGGCACCGUAAAUGUCCGACUAGGUCCA; test: ITC; conditions: 100 mM KCl, 20 mM MgCl2, 50 mM K-HEPES; pH 7.5, 25 °C, single-site fit
# [4] = tested on: GR A19U U77A (RNA, riboswitch) GGACUUAUAAUCGCGUGGAUAUGGCACGCAAGUUUCUACCGGGCACCGUAAAUGUCCGACUAAGUCCA; test: ITC; conditions: 100 mM KCl, 20 mM MgCl2, 50 mM K-HEPES; pH 7.5, 25 °C, single-site fit
# [5] = tested on: GR A19U C74U U77A (RNA, riboswitch) GGACUUAUAAUCGCGUGGAUAUGGCACGCAAGUUUCUACCGGGCACCGUAAAUGUCCGAUUAAGUCCA; test: ITC; conditions: 100 mM KCl, 20 mM MgCl2, 50 mM K-HEPES; pH 7.5, 25 °C, single-site fit
# [6] = tested on: GR A19C C74U U77G (RNA, riboswitch) GGACCUAUAAUCGCGUGGAUAUGGCACGCAAGUUUCUACCGGGCACCGUAAAUGUCCGAUUAGGUCCA; test: ITC; conditions: 100 mM KCl, 20 mM MgCl2, 50 mM K-HEPES; pH 7.5, 25 °C, single-site fit
# [7] = tested on: GR A19G U77 (RNA, riboswitch) GGACGUAUAAUCGCGUGGAUAUGGCACGCAAGUUUCUACCGGGCACCGUAAAUGUCCGACUAUGUCCA; test: ITC; conditions: 100 mM KCl, 20 mM MgCl2, 50 mM K-HEPES; pH 7.5, 25 °C, single-site fit
# [8] = tested on: GR(C74U) (RNA, riboswitch) GGACAUAUAAUCGCGUGGAUAUGGCACGCAAGUUUCUACCGGGCACCGUAAAUGUCCGAUUAUGUCCA; test: ITC; conditions: 100 mM KCl, 20 mM MgCl2, 50 mM K-HEPES; pH 7.5, 25 °C, single-site fit
# [9] = tested on: GR(C74G) (RNA, riboswitch) GGACAUAUAAUCGCGUGGAUAUGGCACGCAAGUUUCUACCGGGCACCGUAAAUGUCCGAGUAUGUCCA; test: ITC; conditions: 100 mM KCl, 20 mM MgCl2, 50 mM K-HEPES; pH 7.5, 25 °C, single-site fit
# [10] = tested on: GR(C74A) (RNA, riboswitch) GGACAUAUAAUCGCGUGGAUAUGGCACGCAAGUUUCUACCGGGCACCGUAAAUGUCCGAAUAUGUCCA; test: ITC; conditions: 100 mM KCl, 20 mM MgCl2, 50 mM K-HEPES; pH 7.5, 25 °C, single-site fit
# [11] = tested on: GR A19G C74U U77C (RNA, riboswitch) GGACGUAUAAUCGCGUGGAUAUGGCACGCAAGUUUCUACCGGGCACCGUAAAUGUCCGAUUACGUCCA; test: ITC; conditions: 100 mM KCl, 20 mM MgCl2, 50 mM K-HEPES; pH 7.5, 25 °C, single-site fit
# [12] = tested on: GR A19G U77C (RNA, riboswitch) GGACGUAUAAUCGCGUGGAUAUGGCACGCAAGUUUCUACCGGGCACCGUAAAUGUCCGACUACGUCCA; test: ITC; conditions: 100 mM KCl, 20 mM MgCl2, 50 mM K-HEPES; pH 7.5, 25 °C, single-site fit
smiles,measurement,setting,value
CC(=O)Nc1nc2[nH]cnc2c(=O)[nH]1,KD,[1],300 ± 10 nM
same,binding,[2],yes
CC(C)(C)C(=O)Nc1nc2[nH]cnc2c(=O)[nH]1,KD,[1],"230,000 ± 10,000 nM"
CC(C)C(=O)Nc1nc2[nH]cnc2c(=O)[nH]1,KD,[1],7.4 ± 0.5 nM
same,KD,[3],4.5 ± 2.0 nM
CC1CC(O)n2c(nc3[nH]cnc3c2=O)N1 (stereo not shown),KD,[1],"79,000 ± 1000 nM"
CNc1nc2[nH]cnc2c(=O)[nH]1,KD,[1],"17,000 ± 1000 nM"
COc1nc(N)nc2[nH]cnc12,KD,[1],6400 ± 400 nM
NS(=O)(=O)c1ccc(Nc2nc(OCC3CCCCC3)c3nc[nH]c3n2)cc1,KD,[1],5600 ± 600 nM
Nc1nc(Cl)c2[nH]cnc2n1,KD,[1],340 ± 30 nM
Nc1nc(NC2CC2)c2nc[nH]c2n1,KD,[1],"25,000 ± 3000 nM"
Nc1nc(OCC2CCCCC2)c2[nH]cnc2n1,KD,[1],"17,000 ± 1000 nM"
same,binding,[2],yes
Nc1nc(OCc2ccccc2)c2[nH]cnc2n1,binding,[1],no
Nc1nc2[nH]c(N)nc2c(=O)[nH]1,KD,[1],36 ± 13 nM
same,binding,[2],yes
Nc1nc2[nH]c(O)nc2c(=O)[nH]1,KD,[1],10 ± 4 nM
Nc1nc2[nH]cnc2c(=O)[nH]1,KD,[1],2.1 ± 0.7 nM
same,binding,[2]; 1.6 Å,yes
same,KD,[3],0.85 ± 0.31 nM
Nc1nc2c(=O)[nH]cnc2[nH]1,KD,[1],"14,000 ± 1000 nM"
O=C(COc1ccccc1)Nc1nc2[nH]cnc2c(=O)[nH]1,KD,[4],7.8 ± 1.6 nM
same,KD,[5],"66,000 ± 5000 nM"
same,KD,[1],8.8 ± 0.5 nM
same,KD,[6],4100 ± 400 nM
same,KD,[7],5.4 ± 1.2 nM
same,KD,[8],7500 ± 800 nM
same,KD,[9],"42,000 ± 2000 nM"
same,KD,[10],"85,000 ± 25,000 nM"
same,KD,[11],"44,000 ± 4000 nM"
same,KD,[12],4.9 ± 1.2 nM
same,KD,[3],2.2 ± 0.6 nM
O=c1[nH]cnc2nc[nH]c12,KD,[1],240 ± 30 nM
O=c1c2[nH]cnc2nc2ncccn12,binding,[1],no
